pIC50: −log10 of the molar value. Read-outs that look alike come from different tables or passages of the source.
Assays:
Type in all cases: cell-based
Loucy = experiment: CellTiterGlo viability, T-ALL cell line; conditions: single agent, 48 h
Description: (§1) In addition, all media contained penicillin (100 IU/ml), streptomycin (100 μg/ml) and L-glutamine (2 mM). Cell lines were cultured at 37° C. in a humidified atmosphere containing 5% CO2 and expanded in T-150 flasks. In all cases cells were thawed from frozen stocks, expanded through ≥1 passage using appropriate dilutions, counted and assessed for viability using a CASY cell counter prior to plating 150 ul/well at the densities indicated in Table 9 into 96-well plates. All cell lines were determined to be free of mycoplasma contamination in-house.
(§2) Stock solutions of compounds were prepared at a concentration of 5 mM in DMSO and stored at −20° C. In order to analyse the activity of the compounds as single agents, cells were seeded and treated with nine 2-fold serial dilutions of each compound dispensed individually directly into the cell assay plates. […] All the conditions were tested in triplicates. Luminescence was quantified on a multipurpose plate reader. Single agent IC50s were calculated using standard four-parametric curve fitting. IC50 is defined as the compound concentration at which the CTG signal is reduced to 50% of that measured for the vehicle (DMSO) control.
(§3) In order to analyse the activity of the compounds in combination, cells were seeded and treated with seven or eight 3.16-fold serial dilutions of each compound dispensed, either individually or in all possible permutations in a checkerboard fashion, directly into the cell assay plates as indicated in FIG. 1. […] For B-ALL cell lines, two independent experiments, each one performed in duplicates, were performed. For T-ALL cell lines, one experiment performed in triplicate was performed. Luminescence was quantified on a multipurpose plate reader.
(§4) Potential synergistic interactions between compound combinations were assessed using the Excess Inhibition 2D matrix according to the Loewe additivity model and are reported as Synergy Score (Lehar et al, Nat Biotechnol. 2009 July; 27(7): 659-666). All calculations were performed using Chalice TM Bioinformatics Software available in Horizon website. The doubling time indicated in Table 9 is the mean of the doubling time obtained in the different passages (in T-150 flasks) performed from the thawing of the cells to their seeding in the 96-well plates.

J45.01 = experiment: CellTiterGlo viability, T-ALL cell line; conditions: single agent, 48 h
Description: as §1, §2, §3, §4

SU-DHL-10 = experiment: CellTiterGlo viability, DLBCL cell line; conditions: single agent, 2 days; for pIC50: read-out: Abs IC50
Description: (§10) In addition, all media contained penicillin (100 IU/ml), streptomycin (100 μg/ml) and L-glutamine (2 mM). Unless otherwise mentioned, culture media and supplements were from Amimed/Bioconcept (Allschwil, Switzerland).
(§11) Cell lines were cultured at 37° C. in a humidified atmosphere containing 5% CO2 and expanded in T-75 flasks. In all cases cells were thawed from frozen stocks, expanded through ≥1 passage using appropriate dilutions, counted and assessed for viability using a CASY cell counter (Omni Life Science, Bremen, Germany) prior to plating 25 ul/well at the densities indicated in Table 1 into 384-well plates (Corning). All cell lines were determined to be free of mycoplasma contamination by PCR assay performed at Idexx Radii (Columbia, Mo., USA) and misidentification ruled out by assessment of a panel of 48 Small Nucleotide Polymorphisms (SNPs) at Asuragen (Austin, Tex., USA) or in-house.
(§12) Stock solutions of compounds were prepared at a concentration of 10 mM in DMSO (Sigma) and stored at −20° C. Where necessary to afford a full dose-response curve, the stock solutions were pre-diluted in DMSO to 1′000-fold the desired start concentration (see Table 2). On the day after cell seeding, eight 2.5-fold serial dilutions of each compound were dispensed, either individually or in all possible permutations in a checkerboard fashion, directly into the cell assay plates using a non-contact 300D Digital Dispenser (ILCAN, Mannedorf, Switzerland) as outlined in FIG. 4. The final concentration of DMSO was 0.2% in all wells.
(§13) Effects of the single agents as well as their checkerboard combinations on cell viability were assessed after 2 days of incubation at 37° C./5% CO2 by quantification of cellular ATP levels using CellTiterGlo (Promega, Madison, Wis., USA) at 25 μL reagent/well and n=2 replicate plates per condition. Luminescence was quantified on a M1000 multipurpose platereader (ILCAN, Mannedorf, Switzerland). The number/viability of cells at time of compound addition was likewise assessed and used to assess the degree of the population doubling time of a particular cell line.
(§14) Single agent IC50s were calculated using standard four-parametric curve fitting. […] IC50 are defined as the compound concentration at which the CTG signal is reduced to 50% of that measured for the vehicle (DMSO) control.

SU-DHL-4 = experiment: CellTiterGlo viability, DLBCL cell line; conditions: single agent, 2 days; for pIC50: read-out: Abs IC50
Description: as §10, §11, §12, §13, §14

JM1 = experiment: CellTiterGlo viability, DLBCL cell line; conditions: single agent, 2 days; for pIC50: read-out: Abs IC50
Description: as §10, §11, §12, §13
Single agent IC50s were calculated using standard four-parametric curve fitting. […] All calculations were performed using the Combination Analysis Module in-house software. IC50 are defined as the compound concentration at which the CTG signal is reduced to 50% of that measured for the vehicle (DMSO) control.

MOLM-13 = experiment: CellTiterGlo viability, AML cell line; conditions: single agent, 3 days
Description: (§5) In addition, all media contained penicillin (100 IU/ml), streptomycin (100 μg/ml) and L-glutamine (2 mM).
as §1, with “Cell” for “In addition, all media contained penicillin (100 IU/ml), streptomycin (100 μg/ml) and L-glutamine (2 mM). Cell”, “Table 1” for “Table 9”
(§6) Stock solutions of compounds were prepared at a concentration of 5 mM in DMSO and stored at −20° C.
(§7) In order to analyse the activity of the compounds as single agents, cells were seeded and treated with nine 2-fold serial dilutions of each compound dispensed individually directly into the cell assay plates. Effects of the compounds on cell viability were assessed after 3 days of incubation at 37° C./5% CO2 by quantification of cellular ATP levels using CellTiterGlo at 75 μL reagent/well. All the experiments were performed in triplicates. Luminescence was quantified on a multipurpose plate reader. Single agent IC50s were calculated using standard four-parametric curve fitting. IC50 is defined as the compound concentration at which the CTG signal is reduced to 50% of that measured for the vehicle (DMSO) control.
(§8) In order to analyse the activity of the compounds in combination, cells were seeded and treated with seven or eight 3.16-fold serial dilutions of each compound dispensed, either individually or in all possible permutations in a checkerboard fashion, directly into the cell assay plates as indicated in FIG. 9. Effects of the single agents as well as their checkerboard combinations on cell viability were assessed after 3 days of incubation at 37° C./5% CO2 by quantification of cellular ATP levels using CellTiterGlo at 75 μL reagent/well. Two independent experiments, each one performed in duplicates, were performed. Luminescence was quantified on a multipurpose plate reader.
(§9) Potential synergistic interactions between compound combinations were assessed using the Excess Inhibition 2D matrix according to the Loewe additivity model and are reported as Synergy Score (Lehar et al, Nat Biotechnol. 2009 July; 27(7): 659-666). All calculations were performed using Clalice™ Bioinformatics Software.

HL-60 = experiment: CellTiterGlo viability, AML cell line; conditions: single agent, 3 days
Description: as §5
as §1, with “Cell” for “In addition, all media contained penicillin (100 IU/ml), streptomycin (100 μg/ml) and L-glutamine (2 mM). Cell”, “Table 1” for “Table 9”
as §6, §7, §8, §9

ML-2 = experiment: CellTiterGlo viability, AML cell line
Description: as §5
as §1, with “Cell” for “In addition, all media contained penicillin (100 IU/ml), streptomycin (100 μg/ml) and L-glutamine (2 mM). Cell”, “Table 1” for “Table 9”
as §6, §7, §8, §9

KG1a = experiment: CellTiterGlo viability, AML cell line; conditions: single agent, 3 days
Description: as §5
as §1, with “Cell” for “In addition, all media contained penicillin (100 IU/ml), streptomycin (100 μg/ml) and L-glutamine (2 mM). Cell”, “Table 1” for “Table 9”
as §6, §7, §8, §9

Nomo-1 = experiment: CellTiterGlo viability, AML cell line; conditions: single agent, 3 days
Description: as §5
as §1, with “Cell” for “In addition, all media contained penicillin (100 IU/ml), streptomycin (100 μg/ml) and L-glutamine (2 mM). Cell”, “Table 1” for “Table 9”
as §6, §7, §8, §9

THP-1 = experiment: CellTiterGlo viability, AML cell line; conditions: single agent, 3 days
Description: as §5
as §1, with “Cell” for “In addition, all media contained penicillin (100 IU/ml), streptomycin (100 μg/ml) and L-glutamine (2 mM). Cell”, “Table 1” for “Table 9”
as §6, §7, §8, §9

PL-21 = experiment: CellTiterGlo viability, AML cell line; conditions: single agent, 3 days
Description: as §5
as §1, with “Cell” for “In addition, all media contained penicillin (100 IU/ml), streptomycin (100 μg/ml) and L-glutamine (2 mM). Cell”, “Table 1” for “Table 9”
as §6, §7, §8, §9

KG1 = experiment: CellTiterGlo viability, AML cell line; conditions: single agent, 3 days
Description: as §5
as §1, with “Cell” for “In addition, all media contained penicillin (100 IU/ml), streptomycin (100 μg/ml) and L-glutamine (2 mM). Cell”, “Table 1” for “Table 9”
as §6, §7, §8, §9

EOL-1 = experiment: CellTiterGlo viability, AML cell line; conditions: single agent, 3 days
Description: as §5
as §1, with “Cell” for “In addition, all media contained penicillin (100 IU/ml), streptomycin (100 μg/ml) and L-glutamine (2 mM). Cell”, “Table 1” for “Table 9”
as §6, §7, §8, §9

MV4;11 = experiment: CellTiterGlo viability, AML cell line; conditions: single agent, 3 days
Description: as §5
as §1, with “Cell” for “In addition, all media contained penicillin (100 IU/ml), streptomycin (100 μg/ml) and L-glutamine (2 mM). Cell”, “Table 1” for “Table 9”
as §6, §7, §8, §9

GDM-1 = experiment: CellTiterGlo viability, AML cell line; conditions: single agent, 3 days
Description: as §5
as §1, with “Cell” for “In addition, all media contained penicillin (100 IU/ml), streptomycin (100 μg/ml) and L-glutamine (2 mM). Cell”, “Table 1” for “Table 9”
as §6, §7, §8, §9

Kasumi-1 = experiment: CellTiterGlo viability, AML cell line; conditions: single agent, 3 days
Description: as §5
as §1, with “Cell” for “In addition, all media contained penicillin (100 IU/ml), streptomycin (100 μg/ml) and L-glutamine (2 mM). Cell”, “Table 1” for “Table 9”
as §6, §7, §8, §9

WSU-DLCL2 = experiment: CellTiterGlo viability, DLBCL cell line; conditions: single agent, 2 days; for pIC50: read-out: Abs IC50
Description: as §10, §11, §12, §13, §14

In the case of `COc1ccccc1-c1nccc(COc2ccccc2C[C@@H](Oc2ncnc3sc(-c4ccc(F)cc4)c(-c4ccc(OCCN5CCN(C)CC5)c(Cl)c4C)c23)C(=O)O)n1` [Compound 3, (2R)-2-{[(5Sa)-5-{3-chloro-2-methyl-4-[2-(4-methylpiperazin-1-yl)ethoxy]phenyl}-6-(4-fluorophenyl)thieno[2,3-d]pyrimidin-4-yl]oxy}-3-(2-{[2-(2-methoxyphenyl)pyrimidin-4-yl]methoxy}phenyl)propanoic acid], the pIC50 (Loucy) was 7.19, the pIC50 (J45.01) was 7.54 and the “Max Inh” value (SU-DHL-10) was 98.3%. For the same compound, the pIC50 (SU-DHL-10) was 8.42, the “Max Inh” value (SU-DHL-4) was 99.5% and the pIC50 (SU-DHL-4) was 7.75. The “Max Inh” value (JM1) was 99.7%, the pIC50 (JM1) was 7.23 and the pIC50 (MOLM-13) was 8.70. For the same compound, the “Mean of Max Inh” value (MOLM-13; combination (c) experiment) was 100%, the pIC50 (HL-60) was 7.60 and the growth inhibition (ML-2; fifth lowest concentration tested, Compound 4, HCl / Compound 3 experiment) was 26%. The pIC50 (ML-2; single agent, 3 days) was 8.30, the “Mean of Max Inh” value (ML-2; single agent, combination (c) experiment, 3 days) was 100% and the pIC50 (KG1a) was 5.70. The pIC50 (Nomo-1) was 7.89, the pIC50 (THP-1) was 7.77 and the pIC50 (PL-21) was 7.19. The pIC50 (KG1) was 6.41, the pIC50 (EOL-1) was 9.00 and the pIC50 (MV4;11) was 9.00. The “Mean of Max Inh” value (MV4;11; combination (c) experiment) was 100.0%, the pIC50 (GDM-1) was 8.10 and the “Mean of Max Inh” value (GDM-1; combination (c) experiment) was 100%. For the same compound, the pIC50 (Kasumi-1) was 7.48, the “Max Inh” value (WSU-DLCL2) was 99.0% and the pIC50 (WSU-DLCL2) was 8.10.

With `Cl.O=C(c1cc(-c2cc3c(cc2C(=O)N2Cc4ccccc4C[C@H]2CN2CCOCC2)OCO3)n2c1CCCC2)N(c1ccccc1)c1ccc(O)cc1` [Compound 1, HCl, N-(4-hydroxyphenyl)-3-{6-[((3S)-3-(4-morpholinylmethyl)-3,4-dihydro-2(1H)-isoquinolinyl)carbonyl]-1,3-benzodioxol-5-yl}-N-phenyl-5,6,7,8-tetrahydro-1-indolizine carboxamide hydrochloride] the pIC50 (Loucy) was 6.64, the pIC50 (J45.01) was 5.05 and the pIC50 (SU-DHL-10; Homo sapiens, SU-DHL10, 48 h) was ≤ 5.00. For the same compound, the “Max Inh” value (SU-DHL-10) was 43.9%, the pIC50 (SU-DHL-4; Homo sapiens, 48 h) was 6.07 and the “Max Inh” value (SU-DHL-4) was 96.9%. For the same compound, the pIC50 (JM1; Homo sapiens, 48 h) was 6.16, the “Max Inh” value (JM1) was 99.1% and the pIC50 (MOLM-13; Homo sapiens, 72 h) was 7.40. It also gave a pIC50 (HL-60; Homo sapiens, 72 h) of 5.85, a pIC50 (ML-2; Homo sapiens, 72 h, single agent, 3 days) of 7.40 and a pIC50 (KG1a; Homo sapiens, KG-1a, 72 h) of 5.76. The pIC50 (Nomo-1; Homo sapiens, 72 h) was 5.13, the pIC50 (THP-1; Homo sapiens, 72 h) was 6.12 and the pIC50 (PL-21; 72 h) was 5.56. The pIC50 (KG1; Homo sapiens, KG-1, 72 h) was 5.33, the pIC50 (EOL-1; Homo sapiens, EOL1, 72 h) was 7.40 and the pIC50 (MV4;11; Homo sapiens, 72 h) was 7.52. It also gave a pIC50 (GDM-1; Homo sapiens, 72 h) of 7.22, a pIC50 (Kasumi-1; Homo sapiens, 72 h) of 6.11 and a pIC50 (WSU-DLCL2; Homo sapiens, WSUDLCL2, 48 h) of 5.99. The “Max Inh” value (WSU-DLCL2) was 99.3%.

— US20190240225A1, “COMBINATION OF A BCL-2 INHIBITOR AND A MCL-1 INHIBITOR, USES AND PHARMACEUTICAL COMPOSITIONS THEREOF” (LES LABORATOIRES SERVIER, priority 2016, published 2019)
